Laboratory results published in PubChem BioAssay (NCI).
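All cell lines were grown in 96-well plates and treated with compound for 48 hours. GI50 = concentration required for 50% inhibition of growth. TGI: concentration producing complete growth inhibition.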

What was measured:
Assay in all cases: NCI-60 cell line screen, 48 h; in the data active = GI50 below about 0.43 µM; inactive = the rest
UACC-62 melanoma = system: UACC-62 melanoma
COLO 205 colon = system: COLO 205 colon
SK-MEL-2 melanoma = system: SK-MEL-2 melanoma
SF-268 CNS = system: SF-268 CNS
RPMI-8226 leukemia = system: RPMI-8226 leukemia
U251 CNS = system: U251 CNS
MOLT-4 leukemia = system: MOLT-4 leukemia
786-0 renal = system: 786-0 renal
NCI/ADR-RES ovarian = system: NCI/ADR-RES ovarian
M14 melanoma = system: M14 melanoma
OVCAR-5 ovarian = system: OVCAR-5 ovarian
PC-3 prostate = system: PC-3 prostate
OVCAR-3 ovarian = system: OVCAR-3 ovarian
SN12C renal = system: SN12C renal
SR leukemia = system: SR leukemia
OVCAR-8 ovarian = system: OVCAR-8 ovarian
SNB-19 CNS = system: SNB-19 CNS
A498 renal = system: A498 renal
RXF 393 renal = system: RXF 393 renal
EKVX NSCLC = system: EKVX NSCLC
SK-MEL-28 melanoma = system: SK-MEL-28 melanoma
HOP-62 NSCLC = system: HOP-62 NSCLC
TK-10 renal = system: TK-10 renal
SK-OV-3 ovarian = system: SK-OV-3 ovarian
SK-MEL-5 melanoma = system: SK-MEL-5 melanoma
SW-620 colon = system: SW-620 colon
MDA-MB-231 breast = system: MDA-MB-231 breast
CAKI-1 renal = system: CAKI-1 renal
UACC-257 melanoma = system: UACC-257 melanoma
HS 578T breast = system: HS 578T breast
HCC-2998 colon = system: HCC-2998 colon
K-562 leukemia = system: K-562 leukemia
LOX IMVI melanoma = system: LOX IMVI melanoma
NCI-H23 lung = system: NCI-H23 lung
A549 NSCLC = system: A549 NSCLC
DU-145 prostate = system: DU-145 prostate
NCI-H522 lung = system: NCI-H522 lung
IGROV1 ovarian = system: IGROV1 ovarian
SF-295 CNS = system: SF-295 CNS
HOP-92 NSCLC = system: HOP-92 NSCLC
NCI-H226 lung = system: NCI-H226 lung
MCF7 breast = system: MCF7 breast
KM12 colon = system: KM12 colon
OVCAR-4 ovarian = system: OVCAR-4 ovarian
HCT-116 colon = system: HCT-116 colon
T-47D breast = system: T-47D breast
NCI-H460 lung = system: NCI-H460 lung
MDA-MB-435 = system: MDA-MB-435
CCRF-CEM leukemia = system: CCRF-CEM leukemia
SF-539 CNS = system: SF-539 CNS
UO-31 renal = system: UO-31 renal
MALME-3M melanoma = system: MALME-3M melanoma
ACHN renal = system: ACHN renal
HCT-15 colon = system: HCT-15 colon
BT-549 breast = system: BT-549 breast

O=S(=O)(Nc1ccc(-c2nc(-c3cccc(OCCN4CCOCC4)c3)c(-c3ccnc(Br)c3)[nH]2)cc1)c1ccccc1
6.78 µM: TGI (RXF 393 renal)
3.71 µM: TGI (HCC-2998 colon)
6.87 µM: TGI (SK-MEL-2 melanoma)
7.96 µM: TGI (786-0 renal)
8.71 µM: TGI (NCI-H23 lung)
> 100 µM: TGI (COLO 205 colon) | TGI (SF-268 CNS) | TGI (RPMI-8226 leukemia) | TGI (MOLT-4 leukemia) | TGI (NCI/ADR-RES ovarian) | TGI (OVCAR-5 ovarian) | TGI (OVCAR-3 ovarian) | TGI (SN12C renal) | TGI (SR leukemia) | TGI (OVCAR-8 ovarian) | TGI (SNB-19 CNS) | TGI (EKVX NSCLC) | TGI (TK-10 renal) | TGI (SK-OV-3 ovarian) | TGI (SW-620 colon) | TGI (K-562 leukemia) | TGI (A549 NSCLC) | TGI (DU-145 prostate) | TGI (NCI-H522 lung) | TGI (IGROV1 ovarian) | TGI (KM12 colon) | TGI (OVCAR-4 ovarian) | TGI (HCT-116 colon) | TGI (NCI-H460 lung) | TGI (MDA-MB-435) | TGI (CCRF-CEM leukemia) | TGI (SF-539 CNS) | TGI (UO-31 renal) | TGI (ACHN renal) | TGI (BT-549 breast)
40.6 µM: TGI (NCI-H226 lung)
inactive: GI50 (UACC-62 melanoma) 2.66 µM | GI50 (COLO 205 colon) 3.54 µM | GI50 (SK-MEL-2 melanoma) 2.59 µM | GI50 (SF-268 CNS) 4.23 µM | GI50 (RPMI-8226 leukemia) 2.5 µM | GI50 (U251 CNS) 2.92 µM | GI50 (MOLT-4 leukemia) 2.59 µM | GI50 (786-0 renal) 2.37 µM | GI50 (NCI/ADR-RES ovarian) 4.18 µM | GI50 (M14 melanoma) 2.09 µM | GI50 (OVCAR-5 ovarian) 5.99 µM | GI50 (PC-3 prostate) 2.4 µM | GI50 (OVCAR-3 ovarian) 4.71 µM | GI50 (SN12C renal) 5.37 µM | GI50 (SR leukemia) 2.62 µM | GI50 (OVCAR-8 ovarian) 3.27 µM | GI50 (SNB-19 CNS) 6.07 µM | GI50 (A498 renal) 1.53 µM | GI50 (RXF 393 renal) 2.26 µM | GI50 (EKVX NSCLC) 3.4 µM | GI50 (SK-MEL-28 melanoma) 2.77 µM | GI50 (HOP-62 NSCLC) 3.5 µM | GI50 (TK-10 renal) 4.16 µM | GI50 (SK-OV-3 ovarian) 3.81 µM | GI50 (SK-MEL-5 melanoma) 2.12 µM | GI50 (SW-620 colon) 3.53 µM | GI50 (MDA-MB-231 breast) 3.23 µM | GI50 (CAKI-1 renal) 2.56 µM | GI50 (UACC-257 melanoma) 3.03 µM | GI50 (HS 578T breast) 1.47 µM | GI50 (HCC-2998 colon) 1.85 µM | GI50 (K-562 leukemia) 2.32 µM | GI50 (LOX IMVI melanoma) 1.62 µM | GI50 (NCI-H23 lung) 2.43 µM | GI50 (A549 NSCLC) 3.35 µM | GI50 (DU-145 prostate) 5.64 µM | GI50 (NCI-H522 lung) 3.14 µM | GI50 (IGROV1 ovarian) 3.98 µM | GI50 (SF-295 CNS) 1.72 µM | GI50 (HOP-92 NSCLC) 2.41 µM | GI50 (NCI-H226 lung) 3.1 µM | GI50 (MCF7 breast) 2.16 µM | GI50 (KM12 colon) 3.21 µM | GI50 (OVCAR-4 ovarian) 4.16 µM | GI50 (HCT-116 colon) 3.09 µM | GI50 (T-47D breast) 2.86 µM | GI50 (NCI-H460 lung) 3.45 µM | GI50 (MDA-MB-435) 2.93 µM | GI50 (CCRF-CEM leukemia) 2.89 µM | GI50 (SF-539 CNS) 3.68 µM | GI50 (UO-31 renal) 2.92 µM | GI50 (MALME-3M melanoma) 2.2 µM | GI50 (ACHN renal) 2.99 µM | GI50 (HCT-15 colon) 1.74 µM | GI50 (BT-549 breast) 3.02 µM
6.94 µM: TGI (A498 renal)
63.6 µM: TGI (MDA-MB-231 breast)
5.55 µM: TGI (M14 melanoma)
3.42 µM: TGI (LOX IMVI melanoma)
8.51 µM: TGI (MCF7 breast)
28.6 µM: TGI (T-47D breast)
4.6 µM: TGI (SK-MEL-5 melanoma)
4.1 µM: TGI (SF-295 CNS)
4.37 µM: TGI (HS 578T breast)
46 µM: TGI (U251 CNS)
9.79 µM: TGI (SK-MEL-28 melanoma)
36.6 µM: TGI (PC-3 prostate)
12.1 µM: TGI (UACC-62 melanoma)
6.79 µM: TGI (HCT-15 colon)
56.9 µM: TGI (MALME-3M melanoma)
8.18 µM: TGI (HOP-92 NSCLC)
57.3 µM: TGI (HOP-62 NSCLC)
12 µM: TGI (UACC-257 melanoma)
14.5 µM: TGI (CAKI-1 renal)
